The target of data set [1] is Cytochrome P450 2C9 (Homo sapiens, UniProt P11712). Briefly: Inhibition of CYP2C9 in human liver microsomes using diclofenac as substrate preincubated for 5 mins followed by NADPH addition and measured for 10 to 30 mins by LC-MS/MS analysis. The format is ADME.
In data set [2] the test system is Mus musculus. Briefly: In vivo inhibition of TNSK/TNSK2-medited WNT/beta-catenin signaling in human COLO320DM cells xenografted Prkdc-NOD-SCID CB17 mouse assessed as upregulation of AXIN2 expression in tumor cytosolic extract at 10 to 20 mg/kg, ip administered twice daily for 5 days followed by 2 days interval for 2 cycles measured 4 hrs post-last dose by Western blot analysis. It counts as functional, organism-based. In general terms: In xenograft studies the graft and the host belong to different species.

A short description of data set [3]: Dose normalized AUC (infinity) in Sprague-Dawley rat at 1 mg/kg, iv. The following applies: in vivo. The format is ADME, organism-based.
A short description of data set [4]: Toxicity in human COLO320DM cells xenografted Prkdc-NOD-SCID CB17 mouse assessed as change in body weight at 10 to 20 mg/kg, ip administered twice daily for 5 days followed by 2 days interval for 2 cycles measured during compound dosing. It counts as organism-based. To be noted: in vivo.
Data set [5] in a line: Oral bioavailability in Sprague-Dawley rat at 3 mg/kg. To be noted: in vivo. It counts as ADME, organism-based.
The species named for data set [6] is Homo sapiens.
A short description of data set [7]: Dose normalized initial plasma concentration in Sprague-Dawley rat at 1 mg/kg, iv. To be noted: in vivo. It counts as ADME, organism-based.
A short description of data set [8]: AUC (infinity) in ICR mouse at 20 mg/kg, po. The format is ADME, organism-based. To be noted: in vivo. Also on record: dose 20 mg/kg, time infinity, route oral.
The nature of data set [9]: Cmax in Sprague-Dawley rat at 3 mg/kg, po. It counts as ADME, organism-based. Also on record: dose 3 mg/kg, route oral. To be noted: in vivo.
The target in data set [10] is Tankyrase 1/2 (Homo sapiens) (UniProt Q9H2K2+O95271). The data set is described as follows: Inhibition of TNKS/TNKS2-mediated WNT/beta-catenin signaling pathway in human COLO320DM cells assessed as upregulation of AXIN2 expression at 0.1 uM measured after 16 hrs by Western blot analysis relative to control. It counts as cell-based. In general terms: A western blot detects proteins with antibodies after separation by electrophoresis.
Sequence of Tankyrase 1/2 (Homo sapiens) (O95271 whole entry, looked up): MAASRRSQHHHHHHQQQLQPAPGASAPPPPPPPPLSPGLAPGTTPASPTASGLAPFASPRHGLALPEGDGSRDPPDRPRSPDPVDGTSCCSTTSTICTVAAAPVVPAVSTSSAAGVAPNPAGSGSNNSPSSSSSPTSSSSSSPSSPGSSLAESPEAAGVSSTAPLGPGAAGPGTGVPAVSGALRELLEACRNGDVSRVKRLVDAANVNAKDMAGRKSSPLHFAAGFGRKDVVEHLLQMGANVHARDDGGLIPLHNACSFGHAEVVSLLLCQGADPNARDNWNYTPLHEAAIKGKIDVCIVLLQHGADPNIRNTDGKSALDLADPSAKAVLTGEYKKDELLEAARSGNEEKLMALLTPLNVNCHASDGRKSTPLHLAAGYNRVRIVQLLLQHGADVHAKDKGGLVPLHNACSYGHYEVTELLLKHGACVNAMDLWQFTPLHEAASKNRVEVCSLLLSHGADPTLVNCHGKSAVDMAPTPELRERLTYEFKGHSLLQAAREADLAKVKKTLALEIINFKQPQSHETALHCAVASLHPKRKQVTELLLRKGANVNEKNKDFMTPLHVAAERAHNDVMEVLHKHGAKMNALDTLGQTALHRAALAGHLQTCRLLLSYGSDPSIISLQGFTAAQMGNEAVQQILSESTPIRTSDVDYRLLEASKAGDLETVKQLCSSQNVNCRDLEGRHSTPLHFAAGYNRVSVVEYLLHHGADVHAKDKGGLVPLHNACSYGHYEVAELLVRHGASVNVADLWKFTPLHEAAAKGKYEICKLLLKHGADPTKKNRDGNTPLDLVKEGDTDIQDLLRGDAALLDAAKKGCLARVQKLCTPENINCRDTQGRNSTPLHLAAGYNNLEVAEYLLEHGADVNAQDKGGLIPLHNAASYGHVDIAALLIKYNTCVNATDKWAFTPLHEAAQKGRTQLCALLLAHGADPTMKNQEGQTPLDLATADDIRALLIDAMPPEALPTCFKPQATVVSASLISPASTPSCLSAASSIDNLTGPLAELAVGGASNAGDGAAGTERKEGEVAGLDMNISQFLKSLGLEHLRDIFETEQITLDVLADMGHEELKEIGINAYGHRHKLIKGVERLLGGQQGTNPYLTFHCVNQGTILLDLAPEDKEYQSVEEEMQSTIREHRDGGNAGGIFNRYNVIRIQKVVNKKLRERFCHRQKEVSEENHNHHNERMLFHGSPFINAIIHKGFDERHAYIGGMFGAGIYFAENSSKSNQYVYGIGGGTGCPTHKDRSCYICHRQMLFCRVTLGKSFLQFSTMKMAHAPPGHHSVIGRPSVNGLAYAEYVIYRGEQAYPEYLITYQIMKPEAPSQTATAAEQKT
Sequence of Tankyrase 1/2 (Homo sapiens) (Q9H2K2 whole entry, looked up): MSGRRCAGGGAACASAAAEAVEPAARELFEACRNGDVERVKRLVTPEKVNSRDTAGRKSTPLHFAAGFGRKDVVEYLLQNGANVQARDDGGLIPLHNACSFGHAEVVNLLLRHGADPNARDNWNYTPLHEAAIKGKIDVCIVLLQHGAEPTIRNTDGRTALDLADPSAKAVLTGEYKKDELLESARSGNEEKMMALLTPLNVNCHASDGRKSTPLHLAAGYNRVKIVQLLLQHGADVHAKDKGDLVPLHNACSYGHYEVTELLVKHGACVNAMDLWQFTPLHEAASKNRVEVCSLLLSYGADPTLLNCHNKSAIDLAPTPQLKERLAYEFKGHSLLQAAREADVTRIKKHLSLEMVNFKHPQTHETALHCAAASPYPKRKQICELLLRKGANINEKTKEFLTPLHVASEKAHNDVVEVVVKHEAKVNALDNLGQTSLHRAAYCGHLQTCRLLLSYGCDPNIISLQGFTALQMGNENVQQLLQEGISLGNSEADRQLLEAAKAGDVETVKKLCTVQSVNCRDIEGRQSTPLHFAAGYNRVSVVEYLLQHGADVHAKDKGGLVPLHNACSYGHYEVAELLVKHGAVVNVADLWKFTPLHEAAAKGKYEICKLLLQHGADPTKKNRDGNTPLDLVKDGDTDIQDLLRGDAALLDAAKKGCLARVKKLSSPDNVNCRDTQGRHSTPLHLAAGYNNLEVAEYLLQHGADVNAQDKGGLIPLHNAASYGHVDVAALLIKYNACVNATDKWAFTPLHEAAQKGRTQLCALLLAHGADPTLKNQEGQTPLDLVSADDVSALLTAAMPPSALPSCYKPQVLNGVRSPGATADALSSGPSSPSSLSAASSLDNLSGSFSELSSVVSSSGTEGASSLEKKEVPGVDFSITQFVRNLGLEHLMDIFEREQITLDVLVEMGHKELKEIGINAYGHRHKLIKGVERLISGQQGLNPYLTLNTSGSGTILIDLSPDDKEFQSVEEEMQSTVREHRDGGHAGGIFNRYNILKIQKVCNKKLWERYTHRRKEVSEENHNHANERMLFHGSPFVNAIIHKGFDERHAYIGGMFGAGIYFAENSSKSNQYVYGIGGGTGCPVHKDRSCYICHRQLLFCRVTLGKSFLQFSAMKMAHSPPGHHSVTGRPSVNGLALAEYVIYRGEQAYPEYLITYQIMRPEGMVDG

Data set [11] deals with Cytochrome P450 2D6 (Homo sapiens, UniProt P10635). The data set is described as follows: Inhibition of CYP2D6 in human liver microsomes using bufuralol as substrate preincubated for 5 mins followed by NADPH addition and measured for 10 to 30 mins by LC-MS/MS analysis. The format is ADME. Background: Microsomes from liver hold many membrane-bound enzymes, among them those of drug oxidation.
Sequence of Cytochrome P450 2D6 (P10635 whole entry): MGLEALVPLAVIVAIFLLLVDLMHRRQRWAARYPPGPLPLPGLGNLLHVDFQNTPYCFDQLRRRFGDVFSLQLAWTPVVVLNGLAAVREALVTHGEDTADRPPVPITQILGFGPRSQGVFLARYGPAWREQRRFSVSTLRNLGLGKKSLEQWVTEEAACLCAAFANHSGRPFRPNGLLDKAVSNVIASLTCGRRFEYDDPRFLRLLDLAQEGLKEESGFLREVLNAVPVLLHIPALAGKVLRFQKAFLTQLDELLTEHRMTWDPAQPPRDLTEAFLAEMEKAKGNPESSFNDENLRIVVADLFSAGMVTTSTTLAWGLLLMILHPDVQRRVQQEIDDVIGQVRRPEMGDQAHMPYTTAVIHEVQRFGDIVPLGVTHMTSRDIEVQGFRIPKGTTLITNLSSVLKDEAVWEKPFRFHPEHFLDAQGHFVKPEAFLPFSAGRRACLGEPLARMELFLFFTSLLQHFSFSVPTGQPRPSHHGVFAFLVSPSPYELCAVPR

Data set [12] in a line: Plasma concentration in ICR mouse at 20 mg/kg, po measured after 4 hrs. It counts as ADME, organism-based.
In data set [13] the test system is COLO 320DM. Briefly: Antitumor activity against human COLO320DM cells xenografted in Prkdc-NOD-SCID CB17 mouse assessed as tumor growth inhibition at 10 mg/kg, po administered twice daily for 5 days followed by 2 days interval for 2 cycles relative to control. The following applies: read-out: TGI. The format is functional.
Data set [14] deals with T1, Cytochrome P450 1A2 (Homo sapiens, UniProt P05177).
T1 sequence (P05177 whole entry): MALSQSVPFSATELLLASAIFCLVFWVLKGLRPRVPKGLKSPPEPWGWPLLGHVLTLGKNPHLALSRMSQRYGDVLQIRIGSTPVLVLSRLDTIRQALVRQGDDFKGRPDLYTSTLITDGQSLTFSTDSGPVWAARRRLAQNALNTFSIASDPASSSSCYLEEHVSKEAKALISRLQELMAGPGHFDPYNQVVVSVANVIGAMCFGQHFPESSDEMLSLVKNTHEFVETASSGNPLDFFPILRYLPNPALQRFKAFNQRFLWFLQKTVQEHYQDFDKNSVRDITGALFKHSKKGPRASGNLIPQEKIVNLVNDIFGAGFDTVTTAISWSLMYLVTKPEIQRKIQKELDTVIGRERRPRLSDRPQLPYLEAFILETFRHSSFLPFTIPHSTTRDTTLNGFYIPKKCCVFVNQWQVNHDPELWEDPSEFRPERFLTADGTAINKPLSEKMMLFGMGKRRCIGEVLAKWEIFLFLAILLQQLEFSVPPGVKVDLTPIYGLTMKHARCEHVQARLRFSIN
The data set is described as follows: Inhibition of CYP1A2 in human liver microsomes using phenacetin as substrate preincubated for 5 mins followed by NADPH addition and measured for 10 to 30 mins by LC-MS/MS analysis. It counts as ADME.

Data set [15] can be described thus: Cmax in ICR mouse at 20 mg/kg, po. It counts as ADME, organism-based. Also on record: dose 20 mg/kg, route oral. To be noted: in vivo.
Data set [16] in a line: Total clearance in Sprague-Dawley rat at 3 mg/kg, iv. The format is ADME, organism-based. The following applies: in vivo.
The target of data set [17] is T2, Cytochrome P450 2B6 (Homo sapiens, UniProt P20813).
T2 sequence (P20813 whole entry): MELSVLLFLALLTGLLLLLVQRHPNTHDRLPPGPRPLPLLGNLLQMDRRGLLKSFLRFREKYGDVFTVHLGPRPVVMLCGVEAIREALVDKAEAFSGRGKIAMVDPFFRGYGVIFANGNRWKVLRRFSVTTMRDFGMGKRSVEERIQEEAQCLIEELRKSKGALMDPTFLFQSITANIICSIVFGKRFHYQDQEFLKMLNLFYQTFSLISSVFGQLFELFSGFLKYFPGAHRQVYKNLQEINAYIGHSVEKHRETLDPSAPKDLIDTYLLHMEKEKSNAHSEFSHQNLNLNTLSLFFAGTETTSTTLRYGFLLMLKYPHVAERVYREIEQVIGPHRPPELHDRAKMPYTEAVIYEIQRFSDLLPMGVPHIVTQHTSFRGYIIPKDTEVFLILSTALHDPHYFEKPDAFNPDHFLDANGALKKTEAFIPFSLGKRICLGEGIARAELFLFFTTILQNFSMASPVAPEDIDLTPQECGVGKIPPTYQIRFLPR
Briefly: Inhibition of CYP2B6 in human liver microsomes using bupropion as substrate preincubated for 5 mins followed by NADPH addition and measured for 10 to 30 mins by LC-MS/MS analysis. The format is ADME.

Data set [18] has as its system RKO. The data set is described as follows: Antiproliferative activity against human RKO cells assessed inhibition of cell growth measured after 5 days by MTT assay. It counts as functional. To be noted: 120 h.
The nature of data set [19]: Half life in Sprague-Dawley rat at 3 mg/kg, iv. The format is ADME, organism-based. To be noted: in vivo.
Data set [20] has as its system COLO 320DM. Briefly: Antiproliferative activity against human COLO320DM cells assessed inhibition of cell growth measured after 5 days by MTT assay. The format is functional. The following applies: 120 h.
The target in data set [21] is T3, Cytochrome P450 2C8 (Homo sapiens, UniProt P10632).
T3 sequence (P10632 whole entry): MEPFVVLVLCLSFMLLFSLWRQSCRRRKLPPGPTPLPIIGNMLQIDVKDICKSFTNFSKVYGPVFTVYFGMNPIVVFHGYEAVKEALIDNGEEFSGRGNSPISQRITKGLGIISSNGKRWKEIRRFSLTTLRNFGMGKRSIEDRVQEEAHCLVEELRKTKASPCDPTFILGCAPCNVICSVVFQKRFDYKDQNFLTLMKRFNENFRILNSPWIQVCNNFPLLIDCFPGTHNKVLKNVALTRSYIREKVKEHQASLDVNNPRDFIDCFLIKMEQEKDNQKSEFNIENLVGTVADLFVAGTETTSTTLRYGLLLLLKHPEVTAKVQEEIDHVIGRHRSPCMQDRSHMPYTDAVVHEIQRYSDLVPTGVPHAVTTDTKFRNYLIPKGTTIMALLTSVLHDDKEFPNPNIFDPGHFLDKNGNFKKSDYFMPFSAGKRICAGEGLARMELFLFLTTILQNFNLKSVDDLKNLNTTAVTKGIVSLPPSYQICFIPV
The data set is described as follows: Inhibition of CYP2C8 in human liver microsomes using amodiaquine as substrate preincubated for 5 mins followed by NADPH addition and measured for 10 to 30 mins by LC-MS/MS analysis. The format is ADME.

Active and inactive are the calls of the source.

Sequence of Cytochrome P450 2C9 (P11712 whole entry): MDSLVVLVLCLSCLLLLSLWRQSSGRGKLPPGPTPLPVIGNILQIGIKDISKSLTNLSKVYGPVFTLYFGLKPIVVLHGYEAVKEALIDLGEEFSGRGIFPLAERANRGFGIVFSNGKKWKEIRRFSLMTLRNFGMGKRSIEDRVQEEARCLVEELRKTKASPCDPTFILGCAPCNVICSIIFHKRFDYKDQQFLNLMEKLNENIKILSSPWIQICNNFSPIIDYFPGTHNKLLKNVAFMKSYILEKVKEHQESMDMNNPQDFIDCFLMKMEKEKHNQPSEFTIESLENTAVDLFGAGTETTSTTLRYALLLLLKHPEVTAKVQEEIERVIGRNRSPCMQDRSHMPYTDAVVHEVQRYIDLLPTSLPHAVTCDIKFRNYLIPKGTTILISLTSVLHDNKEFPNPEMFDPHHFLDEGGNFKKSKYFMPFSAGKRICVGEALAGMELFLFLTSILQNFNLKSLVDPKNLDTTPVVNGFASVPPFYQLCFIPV

As to `C[C@@H]1CN(c2cc(F)c3c(c2)N(C)C(=O)C32CCN(c3nc4c(c(=O)[nH]3)CCCN4C)CC2)C[C@H](C)O1`, the IC50 in data set [1], in [11], in data set [14], in data set [17] and in [21] was greater than 10 µM each time. Also, in data set [2], the inhibition result is “Active”. In [3], this compound displayed an AUC/dose of 10.49 µmol·h/L. Moreover, the Activity entry in data set [4] is listed as “Non-Toxic”. In addition, the bioavailability in data set [5] was 100%. Moreover, the Ratio IC50 in data set [6] came out at 223. The C0/dose in data set [7] was determined as 15.26 µM. Also, in data set [8], the AUC(0-inf) came out at 326 µM·h. In addition, the values for the Cmax in data set [9] and in data set [15] were 12.7 µM and 76.6 µM, respectively. Further, in data set [10], the fold change (FC) came to 5.23. For the same compound, the concentration at 4 h in data set [12] turned out to be 26.9 µM. In addition, in data set [13], the inhibition in vivo at 10 mg/kg amounted to 52.3%. The compound also gave a clearance in data set [16] of 3.17 mL/min/kg. Moreover, the GI50 is greater than 10 µM in data set [18] and 0.035 µM in data set [20]. Further, in data set [19], the half-life is 3.61 h.

As a reminder, the IC50 is the midpoint of a concentration-inhibition curve. Higher therefore signals weaker potency in that assay. For orientation: bioavailability means dose-corrected exposure relative to a reference, in per cent. As a reminder, the AUC(0-inf) is the area under the concentration-time curve extrapolated to infinity. By Cmax is commonly meant the maximum level reached in the sampled fluid or tissue. By clearance is commonly meant a measure of how efficiently the substance is removed, as volume per time. A high value points to efficient removal. Usually GI50 stands for the concentration that inhibits growth by half. Higher therefore signals lower sensitivity of the cells. As a reminder, the half-life is the time needed for the level to fall by half in the phase considered. A low value points to rapid decline.
